Each compound was assayed against T1, CCR9 (Homo sapiens, UniProt P51686) (assay: chemotaxis (conventional migration) assay and/or calcium mobilization (calcium flux) assay, TECK-induced, MOLT-4 cells). Settings: Table 1, assay not specified per compound, read-out: IC50, activity in either or both of the chemotaxis assay and calcium mobilization assays.
T1 construct: CCR9-expressing cells (such as a T cell line MOLT-4 cells); host or cells: MOLT-4
T1 sequence (P51686 1-369): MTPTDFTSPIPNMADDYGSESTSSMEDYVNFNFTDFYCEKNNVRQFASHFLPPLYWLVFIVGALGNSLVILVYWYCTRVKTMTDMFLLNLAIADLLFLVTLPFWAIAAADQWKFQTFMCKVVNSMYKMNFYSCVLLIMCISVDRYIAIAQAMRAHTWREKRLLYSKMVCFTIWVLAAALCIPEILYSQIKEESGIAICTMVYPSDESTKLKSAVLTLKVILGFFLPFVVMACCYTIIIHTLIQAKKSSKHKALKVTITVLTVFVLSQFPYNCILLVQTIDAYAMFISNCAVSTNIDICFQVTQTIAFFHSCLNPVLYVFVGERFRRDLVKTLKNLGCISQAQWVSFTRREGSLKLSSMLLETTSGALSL
Type: cell-based
Experimental: MOLT-4 cells were obtained from the American Type Culture Collection (Manassas, Va.) and cultured in RPMI tissue culture medium supplemented with 10% fetal calf serum (FCS) in a humidified 5% CO2 incubator at 37° C. Recombinant human chemokine protein TECK was obtained from R&D Systems (Minneapolis, Minn.). ChemoTX® chemotaxis microchambers were purchased from Neuro Probe (Gaithersburg, Md.). CyQUANT® cell proliferation kits were purchased from Molecular Probes (Eugene, Oreg.). Calcium indicator dye Fluo-4 AM was purchased from Molecular Devices (Mountain View, Calif.).
Conventional migration assay was used to determine the efficacy of potential receptor antagonists in blocking migration mediated through CCR9. This assay was routinely performed using the ChemoTX® microchamber system with a 5-μm pore-sized polycarbonate membrane. To begin such an assay, MOLT-4 cells were harvested by centrifugation of cell suspension at 1000 PRM on a GS-6R Beckman centrifuge. The cell pellet was resuspended in chemotaxis buffer (HBSS with 0.1% BSA) at 5×10^6 cells/mL. Test compounds at desired concentrations were prepared from 10 mM stock solutions by serial dilutions in chemotaxis buffer. An equal volume of cells and compounds were mixed and incubated at room temperature for 15 minutes. Afterwards, 20 μL of the mixture was transferred onto the porous membrane of a migration microchamber, with 29 μL of 50 nM chemokine TECK protein placed at the lower chamber. Following a 150-minute incubation at 37° C., during which cells migrated against the chemokine gradient, the assay was terminated by removing the cell drops from atop the filter. To quantify cells migrated across the membrane, 5 μL of 7× CyQUANT® solution was added to each well in the lower chamber, and the fluorescence signal measured on a Spectrafluor Plus fluorescence plate reader (TECAN, Durham, N.C.). The degree of inhibition was determined by comparing migration signals between compound-treated and untreated cells. IC50 calculation was further performed by non-linear squares regression analysis using Graphpad Prism (Graphpad Software, San Diego, Calif.).
Calcium flux assay measures an increase in intracellular calcium following ligand-induced receptor activation. In the screen of CCR9 antagonists, it was used as a secondary assay carried out on a FLIPR® machine (Molecular Devices, Mountain View, Calif.). To begin an assay, MOLT-4 cells were harvested by centrifugation of cell suspension, and resuspended to 1.5×10^6 cells/mL in HBSS (with 1% fetal calf serum). Cells were then labeled with a calcium indicator dye Fluo-4 AM for 45 minutes at 37° C. with gentle shaking. Following incubation, cells were pelletted, washed once with HBSS and resuspended in the same buffer at a density of 1.6×10^6 cells/mL. One hundred microliters of labeled cells were mixed with 10 μL of test compound at the appropriate concentrations on an assay plate. Chemokine protein TECK was added at a final concentration of 25 nM to activate the receptor. The degree of inhibition was determined by comparing calcium signals between compound-treated and untreated cells. IC50 calculations were further performed by non-linear squares regression analysis using Graphpad Prism (Graphpad Software, San Diego, Calif.).
Activity is provided as follows for either or both of the chemotaxis assay and/or calcium mobilization assays, described above.
With C=CC(O)(c1cc[n+]([O-])cc1)c1cc(Cl)ccc1NS(=O)(=O)c1ccc(C(C)(C)C)cc1 (stereo not drawn) the IC50 was < 500 nM.
With CC(C)Oc1ccc(S(=O)(=O)Nc2ccc(Cl)cc2C(O)c2ccncc2)cc1 (stereo not drawn) the IC50 was < 500 nM.
CC(C)(C)c1ccc(S(=O)(=O)Nc2ccc(Cl)cc2C(O)c2ccncc2)cc1 (stereo not drawn) was tested, and the IC50 was < 500 nM.
In the case of CO/N=C(\c1ccncc1)c1cc(Cl)ccc1NS(=O)(=O)c1ccc(C(C)(C)C)cc1, the IC50 is reported as < 500 nM.
For CC(C)(C)c1ccc(S(=O)(=O)Nc2ccc(Cl)cc2C(F)(F)c2ccncc2)cc1, the IC50 was < 500 nM.
In the case of CO/N=C(/c1ccncc1)c1cc(Cl)ccc1NS(=O)(=O)c1ccc(C(C)(C)C)cc1, the IC50 is reported as < 500 nM.
In the case of CC(C)(C)c1ccc(S(=O)(=O)Nc2ccc(Cl)cc2C(O)c2cccnc2)cc1 (stereo not drawn), the IC50 is reported as < 500 nM.
For CC(=O)N(c1ccncc1)c1cc(Cl)ccc1NS(=O)(=O)c1ccc(C(C)(C)C)cc1, the IC50 was < 500 nM.
In the case of C=C(c1cc[n+]([O-])cc1)c1cc(Cl)ccc1NS(=O)(=O)c1ccc(C(C)(C)C)cc1, the IC50 is reported as < 500 nM.
In the case of CC(C)(C)c1ccc(S(=O)(=O)Nc2ccc(Cl)cc2Nc2ccncc2)cc1, the IC50 is reported as < 500 nM.
In the case of CC(C)(C)c1ccc(S(=O)(=O)Nc2ccc(Cl)cc2C(O)c2cc[n+]([O-])cc2)cc1 (stereo not drawn), the IC50 is reported as < 500 nM.
In the case of CCc1ccc(S(=O)(=O)Nc2ccc(Cl)cc2C(O)c2ccncc2)cc1 (stereo not drawn), the IC50 is reported as < 500 nM.
In the case of CC(C)(C)c1ccc(S(=O)(=O)Nc2ccc(Cl)cc2C(F)(F)c2cc[n+]([O-])cc2)cc1, the IC50 is reported as < 500 nM.
With CC(C)(C)c1ccc(S(=O)(=O)Nc2ccc(Cl)cc2C(N)c2cc[n+]([O-])cc2)cc1 (stereo not drawn) the IC50 was < 500 nM.
CC(C)(C)c1ccc(S(=O)(=O)Nc2ccc(Cl)cc2C(O)c2ccccc2)cc1 (stereo not drawn) was tested, and the IC50 was < 500 nM.
In the case of O=S(=O)(Nc1ccc(Cl)cc1C(O)c1ccncc1)c1ccc(-c2cnco2)cc1 (stereo not drawn), the IC50 is reported as < 500 nM.

Same assay, conditions: Table 2, assay not specified per compound, read-out: IC50, activity in either or both of the chemotaxis assay and calcium mobilization assays
CC(C)(C)c1ccc(S(=O)(=O)Nc2ccc(Cl)cc2-c2ccccn2)cc1 was tested, and the IC50 was < 2000 nM.
For CC(C)(C)c1ccc(S(=O)(=O)Nc2ccc(Cl)cc2-c2nccc3c[n+]([O-])ccc23)cc1, the IC50 was < 2000 nM.
For CC(C)(C)c1ccc(S(=O)(=O)Nc2ccc(Cl)cc2-c2nccc3ccccc23)cc1, the IC50 was < 2000 nM.
In the case of CC(C)(C)c1ccc(S(=O)(=O)Nc2ccc(Cl)cc2-c2c3ccccc3cc[n+]2[O-])cc1, the IC50 is reported as < 2000 nM.
For CC(C)(C)c1ccc(S(=O)(=O)Nc2ccc(Cl)cc2-c2cc3ccccc3cn2)cc1, the IC50 was < 2000 nM.
With CC(C)(C)c1ccc(S(=O)(=O)Nc2ccc(Cl)cc2-c2nnn[nH]2)cc1 the IC50 was < 2000 nM.
In the case of O=S(=O)(Nc1ccc(Cl)cc1-c1nccc2ccccc12)c1ccc(-c2cnco2)cc1, the IC50 is reported as < 2000 nM.

Same assay, conditions: Table 3, assay not specified per compound, read-out: IC50, activity in either or both of the chemotaxis assay and calcium mobilization assays
CC(C)(C)c1ccc(S(=O)(=O)Nc2ccc(Cl)cc2C(C)(C)c2cc[n+]([O-])cc2)cc1 was tested, and the IC50 was 500 to 5000 nM.
CC(C)(C)c1ccc(S(=O)(=O)Nc2ccc(Cl)cc2C2(c3cc[n+]([O-])cc3)OCCO2)cc1 was tested, and the IC50 was 500 to 5000 nM.
In the case of CC(=O)c1ccc(S(=O)(=O)Nc2ccc(Cl)cc2C(O)c2cccnc2)cc1 (stereo not drawn), the IC50 is reported as 500 to 5000 nM.
C=C(c1ccccc1)c1cc(Cl)ccc1NS(=O)(=O)c1ccc(C)cc1 gave an IC50 of 500 to 5000 nM.
CO/N=C(\c1ccccc1)c1cc(Cl)ccc1NS(=O)(=O)c1ccc(C)cc1 gave an IC50 of 500 to 5000 nM.
With COC(c1cc[n+]([O-])cc1)c1cc(Cl)ccc1NS(=O)(=O)c1ccc(C(C)(C)C)cc1 (stereo not drawn) the IC50 was 500 to 5000 nM.
Compound CN(C)C(c1ccncc1)c1cc(Cl)ccc1NS(=O)(=O)c1ccc(C(C)(C)C)cc1 (stereo not drawn) has an IC50 of 500 to 5000 nM.
With CC(C)(C)c1ccc(S(=O)(=O)Nc2ccc(Cl)cc2C(C)(O)c2cc[n+]([O-])cc2)cc1 (stereo not drawn) the IC50 was 500 to 5000 nM.

Same assay, conditions: Table 4 (++), assay not specified per compound, read-out: IC50, activity in either or both of the chemotaxis assay and calcium mobilization assays
Compound COc1ccc(S(=O)(=O)Nc2ccc(Cl)cc2-c2ccccc2OC)cc1 has an IC50 of 2000 to 10000 nM.
Compound COc1ccc(S(=O)(=O)Nc2ccc(Cl)cc2-c2cccc(OC)c2)cc1 has an IC50 of 2000 to 10000 nM.
Work on COc1ccc(S(=O)(=O)Nc2ccc(Cl)cc2-c2ccccc2)cc1 yielded an IC50 of 2000 to 10000 nM.
COc1ccc(-c2cc(Cl)ccc2NS(=O)(=O)c2ccc(OC)cc2)cc1 gave an IC50 of 2000 to 10000 nM.
COc1ccc(S(=O)(=O)Nc2ccc(Cl)cc2-c2ccc(Cl)cc2)cc1 gave an IC50 of 2000 to 10000 nM.
CC(C)(C)c1ccc(S(=O)(=O)Nc2ccccc2-c2ncc(-c3ccccc3)[nH]2)cc1 was tested, and the IC50 was 2000 to 10000 nM.
With COc1ccc(S(=O)(=O)Nc2ccc(Cl)cc2-c2ccc(F)cc2)cc1 the IC50 was 2000 to 10000 nM.
In the case of COc1ccc(S(=O)(=O)Nc2ccc(Cl)cc2-c2ccc(C)cc2)cc1, the IC50 is reported as 2000 to 10000 nM.

From patent US7932252B2, “Aryl sulfonamides” (ChemoCentryx, Inc., priority 2004, dated 2011)
